Source: patent US4209426A, “Polypeptides related to somatostatin” (American Home Products Corporation, priority 1979, dated 1980)
Structures can show the parent of a compound that is named as a salt. Bridge positions count the residues as written; N and C are the ends. Square brackets hold non-standard residues; d marks the D form. Peptide text beside a SMILES is read from it.

Assays:
Assay type in all cases: in vivo
glucagon = experiment: Arginine-stimulated glucagon secretion in Nembutal-anesthetized rats, radioimmunoassay of blood; settings: for GLUN: albino male rats; for dose with selectivity of action toward glucagon: rats, subcutaneous, summary statement
Experimental: (§1) The biological activity of the products of the preceding preparatory examples were determined by the following procedure:
(§2) Albino male rats were administered Nembutal intraperitoneally at a dose of 50 milligrams per kilogram. Fifteen minutes later a subcutaneous injection of the test compound of physiological saline was administered. Ten minutes later 0.5 milliliters of arginine (300 milligrams per milliliter, pH 7.2) is injected into the heart. Five minutes after receipt of the arginine the rats are decapitated and blood is collected into trasylol-EDTA. An appropriate aliquot was assayed for growth hormone (GH), insulin and glucagon by radio immunoassay.

insulin = experiment: Arginine-stimulated insulin secretion in Nembutal-anesthetized rats, radioimmunoassay of blood; settings: albino male rats
Experimental: as §1, §2

growth hormone (GH) = experiment: Arginine-stimulated growth hormone secretion in Nembutal-anesthetized rats, radioimmunoassay of blood; settings: for GH: albino male rats; for dose effective for reducing secretion of growth hormone, glucagon, and insulin levels: rats, subcutaneous, summary statement covering GH
Experimental: as §1, §2

[1] = 200 μg/kg subcutaneous, blood 15 min after compound, control 379 ± 109 (Example 2), 46 ± 72 (Example 3)
[2] = 200 μg/kg subcutaneous, blood 15 min after compound, control 323 ± 28 (Example 2), 271 ± 44 (Example 3)
[3] = 200 μg/kg subcutaneous, blood 15 min after compound (5 min after arginine), control 268 ± 46 (Example 2), 407 ± 62 (Example 3)

Row | SMILES | GLUN (glucagon; 10 μg/kg subcutaneous, control 52 ± 10) [pg/mL] | GLUN (glucagon; 50 μg/kg subcutaneous, control 86 ± 6) [pg/mL] | GLUN (glucagon; [1]) [pg/mL] | dose with selectivity of action toward glucagon (glucagon) [micrograms per kilogram] | INS (insulin; 10 μg/kg subcutaneous, control 309 ± 31) [μU/ml.] | INS (insulin; 50 μg/kg subcutaneous, control 238 ± 23) [μU/ml.] | INS (insulin; [2]) [μU/ml.] | GH (growth hormone (GH); 10 μg/kg subcutaneous, control 335 ± 33) [ng/mL] | GH (growth hormone (GH); 50 μg/kg subcutaneous, control 202 ± 11) [ng/mL] | GH (growth hormone (GH); [3]) [ng/mL] | dose effective for reducing secretion of growth hormone, glucagon, and insulin levels (growth hormone (GH)) [micrograms per kilogram]
1 | C[C@@H](O)[C@@H]1NC(=O)[C@H](Cc2ccccc2)NC(=O)[C@H]([C@@H](C)O)NC(=O)[C@H](CCCCN)NC(=O)[C@@H](Cc2c[nH]c3ccccc23)NC(=O)[C@H](Cc2ccccc2)NC(=O)[C@H](Cc2ccccc2)NC(=O)[C@H](Cc2ccc(O)cc2)NC(=O)[C@H](CCCNC(=N)N)NC(=O)[C@@H](N)CSSC[C@@H](C(=O)O)NC(=O)[C@H](CO)NC1=O [Example 3, L-Cysteinyl-L-arginyl-L-tyrosyl-L-phenylalanyl-L-phenylalanyl-D-tryptophyl-L-lysyl-L-threonyl-L-phenylalanyl-L-threonyl-L-seryl-L-cysteine cyclic (1-12) disulfide triacetate salt] (H-CRYFF[dW]KTFTSC-OH; disulfide 1-12) | 12 ± 4 | 12 ± 4 | 13 ± 3 | ≤ 10 | 278 ± 36 | 85 ±14 | 59 ± 16 | 207 ± 29 | 80 ± 16 | 101 ± 24 | ≤ 50
2 | C[C@@H](O)[C@@H]1NC(=O)[C@H](Cc2ccccc2)NC(=O)[C@H]([C@@H](C)O)NC(=O)[C@H](CCCCN)NC(=O)[C@@H](Cc2c[nH]c3ccccc23)NC(=O)[C@H](Cc2ccccc2)NC(=O)[C@H](Cc2ccccc2)NC(=O)[C@H](Cc2ccc(O)cc2)NC(=O)[C@H](Cc2c[nH]cn2)NC(=O)[C@@H](N)CSSC[C@@H](C(=O)O)NC(=O)[C@H](CO)NC1=O [Example 2, L-Cysteinyl-L-histidyl-L-tyrosyl-L-phenylalanyl-L-phenylalanyl-D-tryptophyl-L-lysyl-L-threonyl-L-phenylalanyl-L-threonyl-L-seryl-L-cysteine cyclic (1-12) disulfide diacetate salt] (H-CHYFF[dW]KTFTSC-OH; disulfide 1-12) | – | – | 58 ± 24 | ≤ 10 | – | – | 254 ± 38 | – | – | 68 ± 14 | ≤ 50
